The record followed here is ChEMBL document CHEMBL2176882 (Bioorg Med Chem Lett, 2012).

Values after ≈ are worked out from the molar mass of the structure shown. Active and inactive are the calls of the source. The rule behind the calls is not given here.

In data set [1] the test system is Blood. Put plainly: Antiinflammatory activity in human whole blood assessed as inhibition of LPS-induced TNFalpha production. It is filed as functional, tissue-based.
The subject of data set [2] is PBMC. Kind of data set: Cytotoxicity against human PBMC assessed as decrease in ATP level. It is filed as cell-based.
Data set [3] concerns Blood. Put plainly: Antiinflammatory activity in human whole blood assessed as inhibition of LPS-induced IL8 production. It is filed as functional, tissue-based.
Data set [4] addresses Bromodomain-containing protein 3 (Homo sapiens, UniProt Q15059). Kind of data set: Binding affinity to BRD3 assessed as inhibition of Alexa Fluor 488 binding after 60 mins by fluorescence anisotropic analysis.
The nature of data set [5]: Aqueous solubility of the compound at pH 5. It is filed as physicochemical. As to conditions: aqueous medium.
The test system of data set [6] is Blood. Put plainly: Antiinflammatory activity in human whole blood assessed as inhibition of LPS-induced IFNgamma production. The format is functional, tissue-based.
A further data set deals with HepG2. Put plainly: Inhibition of BET in human HepG2 cells assessed as upregulation of ApoA1 after 18 hrs by luciferase reporter gene assay. It is filed as cell-based. In general terms: A reporter such as luciferase makes a cellular process visible.
The target in data set [7] is Bromodomain-containing protein 2 (Homo sapiens, UniProt P25440). Put plainly: Binding affinity to human BRD2 assessed as inhibition of Alexa Fluor 488 binding after 60 mins by fluorescence anisotropic analysis.
Data set [8] has as its system Blood. Kind of data set: Antiinflammatory activity in human whole blood assessed as inhibition of LPS-induced IL12p70 production. The format is functional, tissue-based.
The target in another data set is Cytochrome P450 2C9 (Homo sapiens, UniProt P11712). Kind of data set: Inhibition of CYP2C9. The format is ADME.
For data set [9], the system named is PBMC. Kind of data set: cells. As to conditions: Homo sapiens, read-out: pIC50 (converted).
Description: Antiinflammatory activity in human PBMC assessed as inhibition of LPS-induced IL6 production
A further data set has as its target Cytochrome P450 3A4 (Homo sapiens, UniProt P08684). Put plainly: Inhibition of CYP3A4 using diethoxyfluoresin as substrate. It is filed as ADME.
Data set [10] addresses Bromodomain-containing protein 4 (Homo sapiens, UniProt O60885). Kind of data set: Binding affinity to BRD4 assessed as inhibition of Alexa Fluor 488 binding after 60 mins by fluorescence anisotropic analysis.
For data set [11], the system named is Blood. Kind of data set: Antiinflammatory activity in human whole blood assessed as inhibition of LPS-induced IL10 production. It is filed as functional, tissue-based.

Sequence of Bromodomain-containing protein 3 (Q15059 whole entry): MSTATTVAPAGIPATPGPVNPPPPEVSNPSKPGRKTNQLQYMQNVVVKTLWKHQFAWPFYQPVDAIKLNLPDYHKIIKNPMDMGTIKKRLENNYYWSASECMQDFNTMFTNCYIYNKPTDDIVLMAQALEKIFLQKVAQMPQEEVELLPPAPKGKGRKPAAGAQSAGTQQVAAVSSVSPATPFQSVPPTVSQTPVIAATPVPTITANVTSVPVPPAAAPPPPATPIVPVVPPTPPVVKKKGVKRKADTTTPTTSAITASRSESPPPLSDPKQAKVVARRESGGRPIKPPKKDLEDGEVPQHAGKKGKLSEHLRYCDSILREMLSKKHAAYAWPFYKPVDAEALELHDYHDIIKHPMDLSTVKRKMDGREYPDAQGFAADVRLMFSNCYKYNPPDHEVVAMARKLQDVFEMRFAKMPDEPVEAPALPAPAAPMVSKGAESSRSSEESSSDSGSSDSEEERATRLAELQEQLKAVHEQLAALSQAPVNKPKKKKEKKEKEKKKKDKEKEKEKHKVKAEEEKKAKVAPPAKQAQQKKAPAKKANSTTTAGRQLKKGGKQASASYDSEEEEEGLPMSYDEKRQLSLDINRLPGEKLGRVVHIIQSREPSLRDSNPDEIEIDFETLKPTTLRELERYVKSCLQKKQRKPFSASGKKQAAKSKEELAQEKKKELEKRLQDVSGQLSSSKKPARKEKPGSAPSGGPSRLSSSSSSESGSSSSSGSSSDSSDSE
Sequence of Cytochrome P450 3A4 (P08684 whole entry): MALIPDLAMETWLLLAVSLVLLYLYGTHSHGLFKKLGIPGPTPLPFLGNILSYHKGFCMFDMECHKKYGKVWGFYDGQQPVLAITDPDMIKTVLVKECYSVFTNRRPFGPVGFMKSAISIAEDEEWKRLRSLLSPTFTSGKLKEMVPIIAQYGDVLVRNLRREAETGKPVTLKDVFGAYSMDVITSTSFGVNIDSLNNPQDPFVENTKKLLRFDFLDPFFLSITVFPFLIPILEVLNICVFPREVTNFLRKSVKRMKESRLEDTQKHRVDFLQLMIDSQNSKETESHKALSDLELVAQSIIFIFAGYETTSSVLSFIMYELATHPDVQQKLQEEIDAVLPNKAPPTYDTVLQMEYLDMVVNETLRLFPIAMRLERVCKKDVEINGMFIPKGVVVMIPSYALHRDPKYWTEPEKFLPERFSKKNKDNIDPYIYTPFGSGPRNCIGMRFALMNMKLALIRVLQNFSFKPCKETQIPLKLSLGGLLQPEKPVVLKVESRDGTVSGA
Sequence of Cytochrome P450 2C9 (P11712 whole entry): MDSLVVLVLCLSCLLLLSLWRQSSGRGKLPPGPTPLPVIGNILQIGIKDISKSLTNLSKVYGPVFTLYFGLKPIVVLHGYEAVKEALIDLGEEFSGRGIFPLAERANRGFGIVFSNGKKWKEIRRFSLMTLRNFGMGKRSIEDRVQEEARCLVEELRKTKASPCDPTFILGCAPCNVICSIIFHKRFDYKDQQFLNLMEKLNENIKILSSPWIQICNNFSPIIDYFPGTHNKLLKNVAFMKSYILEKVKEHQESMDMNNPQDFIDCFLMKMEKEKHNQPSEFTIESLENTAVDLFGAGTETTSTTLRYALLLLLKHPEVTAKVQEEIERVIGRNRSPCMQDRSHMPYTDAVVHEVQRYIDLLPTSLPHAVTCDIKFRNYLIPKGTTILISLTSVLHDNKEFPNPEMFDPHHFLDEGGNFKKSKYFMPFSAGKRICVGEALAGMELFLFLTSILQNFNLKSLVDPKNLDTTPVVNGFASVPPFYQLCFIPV
Sequence of Bromodomain-containing protein 2 (P25440 whole entry): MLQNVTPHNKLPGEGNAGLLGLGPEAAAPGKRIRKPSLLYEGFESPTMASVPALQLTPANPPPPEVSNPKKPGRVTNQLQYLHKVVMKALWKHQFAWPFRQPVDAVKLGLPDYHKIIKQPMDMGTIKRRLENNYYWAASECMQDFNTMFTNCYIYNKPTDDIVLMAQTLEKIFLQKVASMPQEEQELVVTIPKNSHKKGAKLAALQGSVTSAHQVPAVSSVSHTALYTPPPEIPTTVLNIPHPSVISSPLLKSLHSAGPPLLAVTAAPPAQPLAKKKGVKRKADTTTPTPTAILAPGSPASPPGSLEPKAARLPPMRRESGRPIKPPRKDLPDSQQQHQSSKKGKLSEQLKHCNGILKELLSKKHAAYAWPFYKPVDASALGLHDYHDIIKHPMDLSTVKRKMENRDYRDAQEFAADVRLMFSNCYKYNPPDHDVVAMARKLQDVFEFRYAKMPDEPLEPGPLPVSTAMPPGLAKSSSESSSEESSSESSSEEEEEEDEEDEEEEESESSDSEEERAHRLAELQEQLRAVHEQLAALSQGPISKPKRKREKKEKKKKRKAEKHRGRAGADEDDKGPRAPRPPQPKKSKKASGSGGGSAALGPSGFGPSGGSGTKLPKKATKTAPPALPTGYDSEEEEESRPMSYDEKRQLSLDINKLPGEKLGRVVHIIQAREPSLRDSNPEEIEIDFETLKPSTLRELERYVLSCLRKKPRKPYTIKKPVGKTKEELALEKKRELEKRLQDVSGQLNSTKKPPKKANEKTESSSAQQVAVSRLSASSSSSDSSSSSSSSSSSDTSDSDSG

`COc1cc2c(NC3CCCCC3)c(C(N)=O)cnc2cc1-c1c(C)noc1C`: the result in the data set on Blood [1] and in the data set with Blood [11] was Active. The Activity entry with PBMC [2] is listed as “Non-toxic”. In addition, the result in the data set on Blood [3], with Blood [6] and in the data set on Blood [8] was inactive. The IC50 in [4] was 0.501 µM; in data set [7] it was 2 µM; against Cytochrome P450 2C9, 4.3 µM; with PBMC [9], 1 µM; at Cytochrome P450 3A4 it was 6.1 µM; in data set [10] it was 1.26 µM. This compound returned a solubility in [5] of 236 µg/mL (≈ 598 µM). Besides, the pEC170 in the data set with HepG2 stood at 6.4.

The term solubility denotes the concentration that dissolves in the medium under given conditions. Lower therefore signals a poorly soluble substance.
